Source: the NIST ThermoML archive (doi:10.1021/je800831d)
Numbers after ± are expanded uncertainties.

Key:
[1] = 101 kPa, Liquid
[2] = xn = mol fraction of the nth substance listed; conditions: 101 kPa, Liquid

C1CCCC1 [cyclopentane]
[1]
Conditions | mass density [kg/m3]
298.15 K | 733.634 ± 0.57
308.15 K | 726.571 ± 0.58

C1CCCC1 [cyclopentane] + CCCCCCCO
mass density [kg/m3], [2]
Conditions | 298.15 K | 308.15 K
x1 = 0.0632 | 815.837 ± 0.45 | 808.629 ± 0.46
x1 = 0.1965 | 808.334 ± 0.46 | 800.856 ± 0.47
x1 = 0.3173 | 800.287 ± 0.47 | 792.895 ± 0.48
x1 = 0.4244 | 793.064 ± 0.48 | 785.675 ± 0.49
x1 = 0.4606 | 790.282 ± 0.48 | 782.889 ± 0.49
x1 = 0.5084 | 786.531 ± 0.49 | 779.091 ± 0.5
x1 = 0.6664 | 772.628 ± 0.51 | 764.753 ± 0.52
x1 = 0.7675 | 762.185 ± 0.53 | 754.805 ± 0.54
x1 = 0.8534 | 752.769 ± 0.54 | 745.466 ± 0.55
x1 = 0.9644 | 739.018 ± 0.56 | 731.663 ± 0.57
x1 = 1 | 733.634 ± 0.57 | 726.571 ± 0.58

C1CCCC1 [cyclopentane] + CCCCCO
mass density [kg/m3], [2]
Conditions | 298.15 K | 308.15 K
x1 = 0.0155 | 810.22 ± 0.45 | 802.763 ± 0.46
x1 = 0.1886 | 799.34 ± 0.47 | 791.417 ± 0.48
x1 = 0.2742 | 793.439 ± 0.48 | 785.673 ± 0.49
x1 = 0.3746 | 786.395 ± 0.49 | 778.336 ± 0.5
x1 = 0.3884 | 785.467 ± 0.49 | 777.389 ± 0.5
x1 = 0.4798 | 779.082 ± 0.5 | 770.553 ± 0.51
x1 = 0.5738 | 771.559 ± 0.51 | 763.458 ± 0.52
x1 = 0.6868 | 762.096 ± 0.53 | 754.298 ± 0.54
x1 = 0.7543 | 756.486 ± 0.53 | 748.638 ± 0.55
x1 = 0.8131 | 751.07 ± 0.54 | 743.306 ± 0.55
x1 = 0.9079 | 742.377 ± 0.56 | 735.151 ± 0.56
x1 = 1 | 733.634 ± 0.57 | 726.571 ± 0.58

C1CCCC1 [cyclopentane] + CCCO
mass density [kg/m3], [2]
Conditions | 298.15 K | 308.15 K
x1 = 0.0553 | 795.275 ± 0.48 | 786.98 ± 0.49
x1 = 0.1627 | 786.754 ± 0.49 | 778.045 ± 0.5
x1 = 0.2341 | 781.37 ± 0.5 | 772.538 ± 0.51
x1 = 0.3137 | 775.778 ± 0.51 | 766.718 ± 0.52
x1 = 0.4691 | 764.862 ± 0.52 | 755.363 ± 0.54
x1 = 0.5666 | 758.623 ± 0.53 | 748.897 ± 0.55
x1 = 0.6338 | 754.486 ± 0.54 | 744.566 ± 0.55
x1 = 0.7688 | 746.451 ± 0.55 | 737.144 ± 0.56
x1 = 0.8446 | 742.132 ± 0.56 | 733.21 ± 0.57
x1 = 0.9167 | 738.181 ± 0.56 | 729.51 ± 0.57
x1 = 1 | 733.634 ± 0.57 | 726.571 ± 0.58

CCCCCCCO [heptan-1-ol]
[1]
Conditions | mass density [kg/m3]
298.15 K | 818.813 ± 0.44
308.15 K | 811.73 ± 0.45

CCCCCCCO [heptan-1-ol] + C1CCCC1
[2], x2 = 0
Conditions | mass density [kg/m3]
298.15 K | 818.813 ± 0.44
308.15 K | 811.73 ± 0.45

CCCCCO [pentan-1-ol]
[1]
Conditions | mass density [kg/m3]
298.15 K | 811.037 ± 0.45
308.15 K | 803.683 ± 0.46

CCCCCO [pentan-1-ol] + C1CCCC1
[2], x2 = 0
Conditions | mass density [kg/m3]
298.15 K | 811.037 ± 0.45
308.15 K | 803.683 ± 0.46

CCCO [propan-1-ol]
[1]
Conditions | mass density [kg/m3]
298.15 K | 799.813 ± 0.47
308.15 K | 791.692 ± 0.48

CCCO [propan-1-ol] + C1CCCC1
[2], x2 = 0
Conditions | mass density [kg/m3]
298.15 K | 799.813 ± 0.47
308.15 K | 791.692 ± 0.48
